We go through 11 compounds from US9198420B2, “Rodenticidal norbormide analogues” (priority 2012, dated 2015).

Data set [1] concerns Sprague Dawley rats. Briefly: In vivo lethality, intravenous injection via the tail. Details: species or system rat (Sprague Dawley). To be noted: 20 mg/Kg, rat. On the procedure:
(§1) Sprague Dawley rats (150-200 g) were used to appraise the rodenticidal activity of the compounds put forward for in vivo evaluation. Briefly, prior to administration the compounds were dissolved in 0.2 M hydrochloric acid (5% DMSO overall), to the desired dose, and without delay either injected intravenously, via the tail, or orally gavaged. All treated animals were housed in a quiet room and monitored every minute (i.v) or every 15 min (oral) to verify early signs of toxicity.

Data set [2] deals with Sprague Dawley rats. Briefly: Palatability (no-choice) trial, peanut butter bait. To be noted: po, 1% w/w toxicant in peanut butter bait, n = 6, 3 male and 3 female rats. In kind it is in vivo, rat (Sprague Dawley). The text has this:
In the palatability trials, Sprague Dawley rats (ca. 250 g) were presented with 1% w/w compound (n=6) or 0.5% w/w compound (n=5) in a peanut butter bait, following 3 days ‘pre-baiting’ with a peanut butter formulation free of toxicant.

The test system of a further data set is rat caudal artery. Put plainly: Rat caudal artery ring contractile force (vasoconstrictory activity). Details: species or system rat (male Wistar). Put shortly: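 Endothelium-denuded caudal artery rings from male Wistar rats were held at 2 g resting tension in Tyrode solution (37° C, pH 7.35, 95% O2/CO2) and isometric force was recorded. Compounds were tested at 50 μM, with contraction expressed as percent of the 90 mM KCl response.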

Data set [3] deals with Sprague Dawley rats. Put plainly: In vivo lethality, oral gavage. The arrangement: species or system rat (Sprague Dawley). To be noted: rat; for Time to Death (min) / Onset of Symptoms: mean time; for Onset of Symptoms: visual signs of distress consistent with NRB-like symptoms. On the procedure:
as §1

Data set [4] in a line: Rat serum assay (release of NRB or NRB analogue). In kind it is in vitro ADME. To be noted: 80% rat serum, 37° C., 3 h, n = 3. On the procedure:
The hydrolytic stability of compounds of the invention in rat blood was evaluated using in vitro rat serum obtained from Sigma-Aldrich and stored at −78° C. Similar assay conditions to those reported by Li Di and co-workers (Int. J. Pharm. 2005, 297, 110-119) were followed [200 μL total volume, 80% rat serum (diluting with phosphate buffer (0.1 M, pH 7.4)), at a final compound concentration of 200 μM, 2.5% DMSO overall, 37° C., 3 h, n=3] using an Eppendorf Thermomixer Compact. Reactions were quenched by transferring 150 μL of the incubation mixture to 450 μL of ice-cold acetonitrile, affording a final compound/NRB or NRB analogue concentration of 50 μM. Samples were centrifuged at 14,500×g for 15 min using an Eppendorf Mini Spin Plus centrifuge, at ambient temperature. 400 μL of the supernatant was removed and transferred to clean tubes. Analysis was by RP-LCMS at an injection volume of 20 μL. Each compound and corresponding NRB or NRB analogue were subjected to external calibration curves at 50 μM, 100 μM and 200 μM to allow conversion of absorbance unit area into nmol, from which the percentage of NRB or NRB analogue released from each compound was calculated.

Data set [5] can be described thus: Simulated gastric fluid (SGF) hydrolytic stability assay. The class given is physicochemical. To be noted: simulated gastric fluid without pepsin, pH 1.2, 37° C., 1 h, n = 3. On the procedure:
All in vivo candidates were subjected to a 1 h hydrolytic stability appraisal in the presence of SGF, without pepsin (United States Pharmacopoeia 24) [200 μL total volume, sodium chloride solution (0.03 M) acidified to pH 1.2 with concentrated hydrochloric acid, at a final compound concentration of 200 μM, 2.5% DMSO overall, 37° C., n=3], to investigate any potential chemical instabilities that may occur in the acidic environment of the stomach prior to uptake. Analysis was by RP-LCMS at an injection volume of 5 μL.

[6] abbreviates: Table 11, read-out: No of deaths (converted).
[7] abbreviates: Table 1, read-out: Vasoconstriction: maximum contractile effect as a % of 90 mM KCl contraction.
The mark [8] stands for this setting: Table 7, compounds of formula (V).
Setting [9] is: Table 12, read-out: No of deaths (converted).

Structures are written as SMILES. Read-outs that look alike come from different tables or passages of the source. Marks after values point to notes of the source that are not given here.

Turning to `CCCCCCCC(=O)OCN1C(=O)C2C3C=C(C(O)(c4ccccc4)c4ccccn4)C(C3=C(c3ccccc3)c3ccccn3)C2C1=O` (stereo not drawn) [Compound 10, 5-(α-Hydroxy-α-2-pyridylbenzyl)-N-octanoyloxymethyl-7-(α-2-pyridylbenzylidene)-5-norbornene-2,3-dicarboximide], the “In vivo lethality (i.v.)” value with Sprague Dawley rats [1] (n = 2) was “yes^f”. In the data set on Sprague Dawley rats [2] (setting [6]), the mortality at 1 % is 100%. The Emax with rat caudal artery (setting [7]) was 0%. Further, the “Vasoconstriction: maximum contractile effect as a % of 90 mM KCl contraction” value in the data set with rat caudal artery (Table 4, pre-cleavage, n = 3) came to 0%. Moreover, in the data set with Sprague Dawley rats [3] (20 mg/Kg), the “Time to Death (min)” value was “not lethal” and the “Onset of Symptoms” value turned out to be 15 min. For the same compound, in the data set with Sprague Dawley rats [3] (40 mg/Kg, n = 2), the “In vivo lethality (oral)” value is “yes^h”.

For the compound `O=C(Cc1ccccc1)OCN1C(=O)C2C3C=C(C(O)(c4ccccc4)c4ccccn4)C(C3=C(c3ccccc3)c3ccccn3)C2C1=O` (stereo not drawn) [Compound 16, 5-(α-Hydroxy-α-2-pyridylbenzyl)-N-phenylacetyloxymethyl-7-(α-2-pyridylbenzylidene)-5-norbornene-2,3-dicarboximide], the “In vivo lethality (i.v.)” value in the data set with Sprague Dawley rats [1] (n = 2) is on record as “yes^f”. The mortality at 1 % in the data set on Sprague Dawley rats [2] (setting [6]) is 83.3%. Moreover, the Emax in the data set on rat caudal artery (setting [7]) amounted to 15%. For the same compound, the “Vasoconstriction: maximum contractile effect as a % of 90 mM KCl contraction” value in the data set with rat caudal artery (Table 4, pre-cleavage, n = 3) was found to be 15%. Further, in the data set on Sprague Dawley rats [3] (20 mg/Kg), the “Time to Death (min)” value is given as 90^d min and the “Onset of Symptoms” value stood at 15 min. In addition, the “In vivo lethality (oral)” value with Sprague Dawley rats [3] (20 mg/Kg, n = 2) is reported as “yes^h,i”. Also, in the data set on Sprague Dawley rats [3] (40 mg/Kg, n = 2), the “In vivo lethality (oral)” value is “yes^h,i”.

Regarding `O=C1C2C3C=C(C(O)(c4ccccc4)c4ccccn4)C(C3=C(c3ccccc3)c3ccccn3)C2C(=O)N1CCO` (stereo not drawn) [Compound 102, N-2′-Hydroxyethyl-5-(α-hydroxy-α-2-pyridylbenzyl)-7-(α-2-pyridylbenzylidene)-5-norbornene-2,3-dicarboximide], the “In vivo lethality (i.v.)” value in the data set with Sprague Dawley rats [1] (n = 3, Table 8) was “yes^b”. The “Vasoconstriction: maximum contractile effect as a % of 90 mM KCl contraction” value is “≧132%” with rat caudal artery (setting [8]) and “≧132%” in the data set with rat caudal artery (n = 3, Table 8). Moreover, the “In vivo lethality (oral)” value is recorded as “yes^c,d” in the data set with Sprague Dawley rats [3] (20 mg/Kg, n = 3, Table 8) and “yes^c,d” in the data set with Sprague Dawley rats [3] (40 mg/Kg, n = 3, Table 8).

In the case of `O=C1C2C3C=C(C(O)(c4ccccc4)c4ccccn4)C(C3=C(c3ccccc3)c3ccccn3)C2C(=O)N1CCCO` (stereo not drawn) [Compound 104, N-3′-Hydroxypropyl-5-(α-hydroxy-α-2-pyridylbenzyl)-7-(α-2-pyridylbenzylidene)-5-norbornene-2,3-dicarboximide], the “In vivo lethality (i.v.)” value in the data set with Sprague Dawley rats [1] (n = 3, Table 8) is reported as “yes^b”. In addition, the “Vasoconstriction: maximum contractile effect as a % of 90 mM KCl contraction” value is recorded as “≧132%” with rat caudal artery (setting [8]) and “≧132%” in the data set on rat caudal artery (n = 3, Table 8). In addition, the “In vivo lethality (oral)” value in the data set on Sprague Dawley rats [3] (40 mg/Kg, n = 3, Table 8) is on record as “yes^c”.

Take `NCCN1C(=O)C2C3C=C(C(O)(c4ccccc4)c4ccccn4)C(C3=C(c3ccccc3)c3ccccn3)C2C1=O` (stereo not drawn) [Compound 106, N-2′-Aminoethyl-5-(α-hydroxy-α-2-pyridylbenzyl)-7-(α-2-pyridylbenzylidene)-5-norbornene-2,3-dicarboximide]: the “In vivo lethality (i.v.)” value in the data set with Sprague Dawley rats [1] (n = 3, Table 8) is on record as “yes^b”. Moreover, the “Vasoconstriction: maximum contractile effect as a % of 90 mM KCl contraction” value is recorded as “≧132%” with rat caudal artery (setting [8]) and “≧132%” with rat caudal artery (n = 3, Table 8).

As for `O=C(O)CN1C(=O)C2C3C=C(C(O)(c4ccccc4)c4ccccn4)C(C3=C(c3ccccc3)c3ccccn3)C2C1=O` (stereo not drawn) [Compound 107, N-Carboxymethyl-5-(α-hydroxy-α-2-pyridylbenzyl)-7-(α-2-pyridylbenzylidene)-5-norbornene-2,3-dicarboximide], the “In vivo lethality (i.v.)” value in the data set with Sprague Dawley rats [1] (n = 3, Table 8) is given as “yes^b”. Besides, the Emax in the data set with rat caudal artery (Table 7, compounds of formula (V), read-out: Vasoconstriction: maximum contractile effect as a % of 90 mM KCl contraction) is ≥ 132%. Further, the “Vasoconstriction: maximum contractile effect as a % of 90 mM KCl contraction” value in the data set on rat caudal artery (n = 3, Table 8) is recorded as “≧132%”.

Consider `O=C(C=Cc1ccc(Cl)cc1)OCCN1C(=O)C2C3C=C(C(O)(c4ccccc4)c4ccccn4)C(C3=C(c3ccccc3)c3ccccn3)C2C1=O` (stereo not drawn) [Compound 129, N-[2′-(4″-Chlorocinnamoyloxy)ethyl]-5-(α-hydroxy-α-2-pyridylbenzyl)-7-(α-2-pyridylbenzylidene)-5-norbornene-2,3-dicarboximide], for which the “In vivo lethality (i.v.)” value with Sprague Dawley rats [1] (n = 2) was “yes^f”. Besides, the Emax in the data set on rat caudal artery (setting [7]) turned out to be 0%. The “Vasoconstriction: maximum contractile effect as a % of 90 mM KCl contraction” value in the data set on rat caudal artery (Table 4, pre-cleavage, n = 3) amounted to 0%. Further, the “In vivo lethality (oral)” value with Sprague Dawley rats [3] (20 mg/Kg, n = 2) is given as “yes^h,i”; with Sprague Dawley rats [3] (40 mg/Kg, n = 2), “yes^h,i”.

For the compound `O=C(OCCN1C(=O)C2C3C=C(C(O)(c4ccccc4)c4ccccn4)C(C3=C(c3ccccc3)c3ccccn3)C2C1=O)c1ccc(C(=O)OCCN2C(=O)C3C4C=C(C(O)(c5ccccc5)c5ccccn5)C(C4=C(c4ccccc4)c4ccccn4)C3C2=O)cc1` (stereo not drawn) [Compound 143, 5-(α-Hydroxy-α-2-pyridylbenzyl)-7-(α-2-pyridylbenzylidene)-N-2′-terephthaloyloxyethyl-5-norbornene-2,3-dicarboximide dimer], the “% NRB released, Rat Serum” value in data set [4] worked out at 27.5 ± 1.4%. For the same compound, the “Vasoconstriction: maximum contractile effect as a % of 90 mM KCl contraction” value with rat caudal artery (Table 5, compounds of formula (III)) is 0%; with rat caudal artery (n = 3, pre-cleavage, Table 6), 0%. The “% NRB released, Hydrolytic Stability” value in data set [5] was 0%.

In the case of `NCc1ccc(C(=O)OCCN2C(=O)C3C4C=C(C(O)(c5ccccc5)c5ccccn5)C(C4=C(c4ccccc4)c4ccccn4)C3C2=O)cc1.O=C(O)C(F)(F)F` (stereo not drawn) [Compound 342, N-[2′-(4-Aminomethylbenzoyloxy)ethyl]-5-(α-hydroxy-α-2-pyridylbenzyl)-7-(α-2-pyridylbenzylidene)-5-norbornene-2,3-dicarboximide trifluoroacetate], in the data set with Sprague Dawley rats [2] (setting [6]), the mortality at 1 % is 66.7%. Also, in the data set on rat caudal artery (setting [7]), the Emax was determined as 136%. For the same compound, the “Vasoconstriction: maximum contractile effect as a % of 90 mM KCl contraction” value in the data set on rat caudal artery (Table 4, pre-cleavage, n = 3) stood at 136%. Further, in the data set on Sprague Dawley rats [3] (40 mg/Kg, n = 2), the “In vivo lethality (oral)” value was “yes^h”.

For the compound `CCOc1ccc(C=CC(=O)NCCN2C(=O)C3C4C=C(C(O)(c5ccccc5)c5ccccn5)C(C4=C(c4ccccc4)c4ccccn4)C3C2=O)cc1` (stereo not drawn) [Compound 345, N-[2′-(4″-Ethoxycinnamamido)ethyl]-5-(α-hydroxy-α-2-pyridylbenzyl)-7-(α-2-pyridylbenzylidene)-5-norbornene-2,3-dicarboximide], the mortality at 1 % in the data set with Sprague Dawley rats [2] (setting [9]) was 33.3%. In the data set with rat caudal artery (Table 2, read-out: Vasoconstriction: maximum contractile effect as a % of 90 mM KCl contraction), the Emax came out at 0%. For the same compound, the “Vasoconstriction: maximum contractile effect as a % of 90 mM KCl contraction” value with rat caudal artery (Table 4, pre-cleavage, n = 3) was 0%. Further, in the data set with Sprague Dawley rats [3] (20 mg/Kg), the “Time to Death (min)” value is recorded as 65^d min and the “Onset of Symptoms” value is given as 15 min. Besides, the “In vivo lethality (oral)” value with Sprague Dawley rats [3] (20 mg/Kg, n = 2) is listed as “yes^h,i”. Also, the “In vivo lethality (oral)” value with Sprague Dawley rats [3] (40 mg/Kg, n = 2) was “yes^h,i”.

As for `CC(C)c1ccc(C=CC(=O)OCCN2C(=O)C3C4C=C(C(O)(c5ccccc5)c5ccccn5)C(C4=C(c4ccccc4)c4ccccn4)C3C2=O)cc1` (stereo not drawn) [Compound 347, 5-(α-Hydroxy-α-2-pyridylbenzyl)-N-[2′-(4″-isopropylcinnamoyloxy)ethyl]-7-(α-2-pyridylbenzylidene)-5-norbornene-2,3-dicarboximide], in the data set with Sprague Dawley rats [2] (setting [9]), the mortality at 1 % was 50%. Besides, the Emax in the data set on rat caudal artery (setting [7]) was 0%. Moreover, in the data set with rat caudal artery (Table 4, pre-cleavage, n = 3), the “Vasoconstriction: maximum contractile effect as a % of 90 mM KCl contraction” value stood at 0%. In addition, in the data set with Sprague Dawley rats [3] (20 mg/Kg), the “Time to Death (min)” value is given as “not lethal” and the “Onset of Symptoms” value is listed as 20 min. Moreover, the “In vivo lethality (oral)” value in the data set on Sprague Dawley rats [3] (40 mg/Kg, n = 2) is “yes^h”.
